Test results taken from patent US11932651B1, “2-benzo-[3,4-B]quinolino-[b,g]indeno[1′,2′:3,4]fluoreno-[1,2-d]oxonine-24-chloro-5,11,16,21-tetraone as an antimicrobial compound” (KING FAISAL UNIVERSITY, priority 2023, dated 2024).

What was measured:
Staphylococcus aureus = assay: Antimicrobial screening by agar dilution, Staphylococcus aureus; type: cell-based; conditions: after 10, 20, 40 and 60 minutes at all dilutions 1:100, 1:200, 1:400, 1:800
Protocol: (§1) The antibacterial properties of the synthesized compound 2-benzo-[3,4-b]quinolino-[b,g]indeno[1′,2′:3,4]fluoreno-[1,2-d]oxonine-24-chloro-5,11,16,21-tetraone were studied by the method of agar dilution. Test solutions of each compound was prepared in concentration of 1% using dimethylformamide as a solvent then they are diluted in physiological solution to obtain the final experimental dilutions 1:100, 1:200, 1:400, 1:800. The effect of these substances are compared with furacillin in a controllable study. The testing microbes used were gram positive bacteria Staphylococcus aureus, gram negative bacteria Pseudomonas aeruginosa and Escherichia coli and Candida albicans fungus. The experiments used for this survey were meat-pentonlu agar (EPA) for cultivation of bacteria and Saburo environment for the fungus. Each experiment used 1 mL of test solution on each plate […]. Two drops of emulsified with microbes feel were added. All experimental samples were taken from the agar after 10, 20, 40, 60 minutes in the environment on the basis of Patrk planted. The bacteria were cultivated at a temperature of 37° C. for 1 day and the mushroom was kept in a thermostat for […] at a temperature of 28° C. Then results were checked.

Candida albicans = assay: Antimicrobial screening by agar dilution, Candida albicans; type: cell-based; conditions: after 10, 20, 40 and 60 minutes at all dilutions 1:100, 1:200, 1:400, 1:800
Protocol: as §1

Escherichia coli = assay: Antimicrobial screening by agar dilution, Escherichia coli; type: cell-based; conditions: after 10, 20, 40 and 60 minutes at all dilutions 1:100, 1:200, 1:400, 1:800
Protocol: as §1

Pseudomonas aeruginosa = assay: Antimicrobial screening by agar dilution, Pseudomonas aeruginosa; type: cell-based; conditions: after 10, 20, 40 and 60 minutes at all dilutions 1:100, 1:200, 1:400, 1:800
Protocol: as §1

O=C1Oc2nc3ccc(Cl)cc3cc2-c2c(c3c4ccccc4c(=O)c3c3c2c(=O)c2ccccc23)C(=O)c2ccccc21 [2-benzo-[3,4-b]quinolino-[b,g]indeno[1′,2′:3,4]fluoreno-[1,2-d]oxonine-24-chloro-5,11,16,21-tetraone]
inhibition activity, Staphylococcus aureus (Staphylococcus aureus): highest inhibition activity | inhibition activity, Candida albicans (Candida albicans): highest inhibition activity | inhibition activity, Escherichia coli (Escherichia coli): highest inhibition activity | inhibition activity, Pseudomonas aeruginosa (Pseudomonas aeruginosa): highest inhibition activity | melting point: 241 °C
